Source: US10561702B2, “Method for the treatment of skin disorders using dipeptide diaminobutyroyl benzylamide diacetate” (DSM IP ASSETS B.V., priority 2015, dated 2020)
“And” between values parts separate entries of the source, which are not always exact repeats. Equal entries are not always repeated.

Key:
[1] = system: human sebaceous glands; test: Ex vivo assay with sebaceous glands (organ culture, total lipid quantification); format: cell-based; conditions: day 6; for Total fat quantification, Average (1-12): average of 12 SG test samples, untreated 17.5
Source text: 2. Ex Vivo Assay with Sebaceous Glands (SG)
Organ culture of human sebaceous glands has been performed in order to verify the modulatory activity of H-(beta-Ala)-Pro-Dab-NH-benzyl on sebum secretion. A viability test has been performed in parallel. Human sebaceous glands from skin sample od labia minora have been used (donor). The epidermis of the full thickness sample has been carefully removed and the sebaceous glands have been micro-dissected.
The sebaceous glands have been pooled in groups of eight and cultured up to day 6. SGs are cultured in 24 well plate immersed in 500 μl of SGs medium (modified Williams'E medium). After 24 hours the culture medium has been changed and substituted with the medium containing the substance to be tested. The medium has been renewed at day 3 and 5 of culture. At day 6 the glands have been collected and used for the quantification of lipids and proteins. Briefly the SGs have been homogenized in isopropyl alcohol (IPOH) in order to extract lipids and let the protein undissolved. An aliquot of IPOH has been withdrawn to measure the lipids whereas the rest has been evaporated in a vacuum centrifuge. The remaining dry pellet has been minced again in presence of protein lysis buffer. The lipids dissolved in IPOH and the protein dissolved in the lysis buffer have been quantified by infrared spectroscopy (Millipore Direct Detect). The total lipid amount has been obtained by normalizing the quantified lipids upon the quantified proteins (i.e. mg of lipids/mg of proteins).

[2] = target: T1, DPP4 (Homo sapiens, UniProt P27487); test: Dipeptidyl Peptidase 4 (DPP4) protease assay (DPP4 Drug Discovery Kit, fluorogenic substrate H-Gly-Pro-AMC); format: biochemical; conditions: for DPP4 activity: % activity remaining
T1 construct: purchased Enzo Life Sciences
Procedure: 1. Dipeptiyl Peptidase 4 (DPP4) Protease Assay Method
The potential of H-(beta-Ala)-Pro-Dab-NH-benzyl [CAS 823202-99-9], respectively N-Pal-Gly-His-Lys [147732-56-7]/N-Pal-Gly-Gln-Pro-Arg [221227-05-0] (2:1) to inhibit DPP4 was tested using the DPP4 Drug Discovery Kit from Enzo Life Sciences. In brief: DPP4 is pre-incubated for 10 minutes with inhibitors and then added to a quenched fluorogenic substrate (H-Gly-Pro-AMC). Cleavage of the AMC-moiety from the c-terminus of the peptide substrate by DPP4 increases its fluorescence intensity at 460 nm. The AMC signal is then recorded using a fluorescence microplate reader at Ex/Em=380/460 every minute for a total time of 20 min. A “best fit” line is generated with the data points of the first 10-20 min and the slope calculated. The remaining activity in the presence of inhibitor was calculated as follows: % activity remaining (with inhibitor)=(slope of inhibitor-sample/slope of control-sample)*100.

T1 sequence (P27487 whole entry): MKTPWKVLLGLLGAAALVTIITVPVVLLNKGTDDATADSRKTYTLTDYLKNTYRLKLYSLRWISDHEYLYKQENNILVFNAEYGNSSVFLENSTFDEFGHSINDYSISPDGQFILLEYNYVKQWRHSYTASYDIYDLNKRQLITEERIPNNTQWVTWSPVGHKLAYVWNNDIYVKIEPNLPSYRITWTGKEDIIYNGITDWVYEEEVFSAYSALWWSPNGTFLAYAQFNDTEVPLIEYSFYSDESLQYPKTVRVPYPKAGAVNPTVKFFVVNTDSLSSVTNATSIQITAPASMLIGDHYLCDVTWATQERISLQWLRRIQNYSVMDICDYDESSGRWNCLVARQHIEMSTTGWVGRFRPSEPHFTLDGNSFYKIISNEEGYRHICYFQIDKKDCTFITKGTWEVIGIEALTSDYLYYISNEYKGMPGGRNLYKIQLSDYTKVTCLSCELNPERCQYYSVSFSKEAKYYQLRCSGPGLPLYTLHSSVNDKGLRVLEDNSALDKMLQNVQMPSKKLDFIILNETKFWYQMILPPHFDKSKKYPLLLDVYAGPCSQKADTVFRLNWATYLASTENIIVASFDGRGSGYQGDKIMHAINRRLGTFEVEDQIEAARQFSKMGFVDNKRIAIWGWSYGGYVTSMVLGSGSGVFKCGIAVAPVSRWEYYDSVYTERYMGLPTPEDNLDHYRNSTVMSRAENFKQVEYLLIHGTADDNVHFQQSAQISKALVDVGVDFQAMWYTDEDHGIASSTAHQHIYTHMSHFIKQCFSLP

With `COc1cc(CNC(=O)CCCC/C=C/C(C)C)ccc1O` [Capsaicin] the “Total fat quantification, Average (1-12)” value ([1]; 5 μM) was 15.5 mg lipid/mg protein and the Total fat quantification ([1]; 5 μM, single SG test samples 1-12) was 15.8 mg lipid/mg protein and 15.7 mg lipid/mg protein and 15.5 mg lipid/mg protein and 15.6 mg lipid/mg protein and 15.4 mg lipid/mg protein and 15.3 mg lipid/mg protein and 15.1 mg lipid/mg protein.
Work on H-(beta-Ala)-Pro-Dab-NH-benzyl yielded a DPP4 activity ([2]; 0.77 ppm / 1.56 μM) of 74%, a DPP4 activity ([2]; 1.55 ppm / 3.13 μM) of 58% and a DPP4 activity ([2]; 3.10 ppm / 6.25 μM) of 40%. It also gave a DPP4 activity ([2]; 6.19 ppm / 12.50 μM) of 24%, a DPP4 activity ([2]; 12.39 ppm / 25.00 μM) of 14% and a DPP4 activity ([2]; 24.78 ppm / 50.00 μM) of 7%. For the same compound, the DPP4 activity ([2]; 49.55 ppm / 100.00 μM) was 4%, the DPP4 activity ([2]; 99.10 ppm / 200.00 μM) was 2% and the “Effect on DPP4 (in words)” value ([2]; summary of tables 1 and 2) was “capable to inhibit DPP4”. For the same compound, the “Total fat quantification, Average (1-12)” value ([1]; 10 μM) was 14.2 mg lipid/mg protein.
